Measurements from ChEMBL document CHEMBL4814079, “Structure-Activity Relationship for the Picolinamide Antibacterials that Selectively Target Clostridioides difficile” (ACS Med Chem Lett, 2021).
In brackets after ≈: the same amount, converted by molar mass.

Assays:
Bacteroides fragilis = assay: Antibacterial activity against gut Bacteroides fragilis HM-709 assessed as reduction in bacterial growth measured after 48 hrs by CLSI based broth microdilution method; type: organism-based; settings: in vitro
Veillonella = assay: Antibacterial activity against gut Veillonella sp HM-49 assessed as reduction in bacterial growth measured after 48 hrs by CLSI based broth microdilution method; type: organism-based; settings: in vitro
Corynebacterium = assay: Antibacterial activity against gut Corynebacterium HM-784 assessed as reduction in bacterial growth measured after 48 hrs by CLSI based broth microdilution method; type: organism-based
[1] = Drug excretion in CD1 mouse feces at 10 mg/kg, po measured upto 8 hrs by LC-MS/MS analysis; type: ADME, organism-based; settings: in vivo
[2] = Plasma concentration in CD1 mouse at 10 mg/kg, po measured upto 8 hrs by LC-MS/MS analysis; type: ADME, organism-based; settings: in vivo, BLD = below limit of detection
Lactobacillus gasseri = assay: Antibacterial activity against gut Lactobacillus gasseri HM-664 assessed as reduction in bacterial growth measured after 48 hrs by CLSI based broth microdilution method; type: organism-based; settings: in vitro
HeLa [3] = assay: Cytotoxicity against human HeLa cells assessed as reduction in cell viability incubated for 16 hrs by XTT assay; type: cell-based
Fusobacterium nucleatum = assay: Antibacterial activity against gut Fusobacterium nucleatum HM-992 assessed as reduction in bacterial growth measured after 48 hrs by CLSI based broth microdilution method; type: organism-based; settings: in vitro
[4] = Selectivity index, ratio of MIC of […] Staphylococcus aureus ATCC 29213 to MIC of Clostridium difficile ATCC 43255; type: functional
Eubacterium sp. = assay: Antibacterial activity against gut Eubacterium sp. HM-178 assessed as reduction in bacterial growth measured after 48 hrs by CLSI based broth microdilution method; type: organism-based
Enterococcus faecium = assay: Antibacterial activity against Enterococcus faecium ATCC 19434 assessed as reduction in bacterial growth measured after 48 hrs by CLSI based broth microdilution method; type: functional
Clostridioides difficile = assay: Antibacterial activity against Clostridium difficile ATCC 43255 assessed as reduction in bacterial growth measured after 48 hrs by CLSI based broth microdilution method; type: functional
[5] = Antibacterial activity against gut Limosilactobacillus-reuteri HM-102 assessed as reduction in bacterial growth measured after 48 hrs by CLSI based broth microdilution method
Bifidobacterium longum = assay: Antibacterial activity against gut Bifidobacterium longum HM-846 assessed as reduction in bacterial growth measured after 48 hrs by CLSI based broth microdilution method; type: organism-based
[6] = Ratio of drug excretion in CD-1 mouse feces to MIC for antibacterial activity against Clostridium difficile ATCC 43255; type: toxicity; settings: in vivo
Staphylococcus aureus = assay: Antibacterial activity against […] Staphylococcus aureus ATCC 29213 assessed as reduction in bacterial growth measured after 48 hrs by CLSI based broth microdilution method; type: functional
[7] = Plasma concentration in CD1 mouse at 20 mg/kg, po measured upto 8 hrs by LC-MS/MS analysis; type: ADME, organism-based; settings: in vivo, BLD = below limit of detection
[8] = Drug excretion in CD1 mouse feces at 20 mg/kg, po measured upto 8 hrs by LC-MS/MS analysis; type: ADME, organism-based; settings: in vivo
HeLa [9] = assay: Cytotoxicity against human HeLa cells assessed as reduction in cell viability at 256 ug/ml incubated for 16 hrs by XTT assay; type: cell-based; settings: dose 256 µg/ml

SMILES	IC50 (HeLa [3])	Ratio [4]	MIC (Clostridioides difficile)	MIC (Staphylococcus aureus)	further results
O=C(Nc1ncco1)c1cc(-c2ccc(Cl)c(Cl)c2)ccn1	95.2 mg/L	1024	0.125 mg/L (≈ 0.374 µM)	128 mg/L (≈ 383 µM)	MIC (Bacteroides fragilis): 4 mg/L (≈ 12 µM); MIC (Veillonella): 16 mg/L (≈ 47.9 µM); MIC (Corynebacterium): 16 mg/L (≈ 47.9 µM); Drug excretion [1]: 0.79 µg/g; Cp [2]: Bld; MIC (Lactobacillus gasseri): > 16 mg/L; MIC (Fusobacterium nucleatum): 8 mg/L (≈ 23.9 µM); MIC (Eubacterium sp.): 8 mg/L (≈ 23.9 µM); MIC (Enterococcus faecium): ≥ 128 mg/L; MIC [5]: 4 mg/L (≈ 12 µM); MIC (Bifidobacterium longum): > 16 mg/L; Ratio [6]: 6.6
O=C(Nc1ncco1)c1ccnc(-c2ccc(Cl)c(Cl)c2)c1	79.9 µM	–	0.25 mg/L (≈ 0.748 µM)	25 mg/L (≈ 74.8 µM)	MIC (Bacteroides fragilis): 1 mg/L (≈ 2.99 µM); MIC (Veillonella): 4 mg/L (≈ 12 µM); MIC (Corynebacterium): 0.5 mg/L (≈ 1.5 µM); MIC (Lactobacillus gasseri): > 16 mg/L; MIC (Fusobacterium nucleatum): 8 mg/L (≈ 23.9 µM); MIC (Eubacterium sp.): > 16 mg/L; MIC (Enterococcus faecium): 0.06 mg/L (≈ 0.18 µM); MIC [5]: 8 mg/L (≈ 23.9 µM); Cp [7]: Bld; MIC (Bifidobacterium longum): > 16 mg/L; Drug excretion [8]: 2.8 µg/g; Ratio [6]: 11
O=C(O)c1ccc2oc(NC(=O)c3cc(-c4ccc(OC(F)(F)F)cc4)ccn3)nc2c1	79.9 mg/L	256	0.03 mg/L (≈ 0.0677 µM)	8 mg/L (≈ 18 µM)	–
O=C(Nc1ncco1)c1cc(-c2cccc(OC(F)(F)F)c2)ccn1	–	> 512	0.5 mg/L (≈ 1.43 µM)	≥ 256 mg/L	–
COc1ccc(Oc2ccnc(C(=O)Nc3ncco3)c2)cc1	–	> 256	1 mg/L (≈ 3.21 µM)	≥ 256 mg/L	–
O=C(Nc1ncco1)c1ccnc(Oc2ccc(Cl)c(Cl)c2)c1	37 mg/L	–	–	–	–
COC(=O)c1ccc2oc(NC(=O)c3cc(Oc4ccc(F)c(F)c4)ccn3)nc2c1	–	256	0.25 mg/L (≈ 0.588 µM)	64 mg/L (≈ 150 µM)	–
O=C(Nc1ncco1)c1cc(-c2ccc(F)c(Cl)c2)ccn1	–	512	0.25 mg/L (≈ 0.787 µM)	128 mg/L (≈ 403 µM)	–
O=C(Nc1ncco1)c1cc(Oc2ccc(F)c(F)c2)ccn1	–	64	1 mg/L (≈ 3.15 µM)	64 mg/L (≈ 202 µM)	–
CN[C@H](CC(C)C)C(=O)N[C@H]1C(=O)N[C@@H](CC(N)=O)C(=O)N[C@H]2C(=O)N[C@H]3C(=O)N[C@H](C(=O)N[C@H](C(=O)O)c4cc(O)cc(O)c4-c4cc3ccc4O)[C@H](O)c3ccc(c(Cl)c3)Oc3cc2cc(c3O[C@@H]2O[C@H](CO)[C@@H](O)[C@H](O)[C@H]2O[C@H]2C[C@](C)(N)[C@H](O)[C@H](C)O2)Oc2ccc(cc2Cl)[C@H]1O [VANCOMYCIN]	–	–	–	–	MIC (Bacteroides fragilis): 16 mg/L (≈ 11 µM); MIC (Veillonella): > 32 mg/L; MIC (Lactobacillus gasseri): 1 mg/L (≈ 0.69 µM); MIC (Fusobacterium nucleatum): 0.25 mg/L (≈ 0.173 µM); MIC (Eubacterium sp.): 2 mg/L (≈ 1.38 µM); MIC [5]: > 32 mg/L; MIC (Bifidobacterium longum): 0.25 mg/L (≈ 0.173 µM)
O=C(O)c1ccc2oc(NC(=O)c3cc(-c4cccc(OC(F)(F)F)c4)ccn3)nc2c1	124 mg/L	512	0.03 mg/L (≈ 0.0677 µM)	16 mg/L (≈ 36.1 µM)	–
O=C(Nc1ncco1)c1cc(-c2ccc(F)cc2)ccn1	–	64	1 mg/L (≈ 3.53 µM)	64 mg/L (≈ 226 µM)	–
O=C(Nc1ncco1)c1cc(-c2ccc(C(F)(F)F)cc2)ccn1	–	512	0.25 mg/L (≈ 0.75 µM)	128 mg/L (≈ 384 µM)	–
O=C(Nc1ncco1)c1cc(-c2ccc(Cl)cc2)ccn1	–	32	4 mg/L (≈ 13.3 µM)	128 mg/L (≈ 427 µM)	–
O=C(Nc1ncco1)c1cc(-c2ccc(Cl)c(F)c2)ccn1	–	512	0.25 mg/L (≈ 0.787 µM)	128 mg/L (≈ 403 µM)	Activity (HeLa [9]): Non-Toxic
